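Dose response: 5 concentrations. Exposure: 48 h. Format: 96-well plates. Endpoint: linear interpolation; highest concentration if not reached. At the GI50, growth is halved.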 Activity calls are given as the source filed them. No stated cut-off is given here; in the data, active = GI50 up to about 1.1 µM and inactive = higher.
Tests used:
Assay in all cases: NCI anticancer screen, dose series, 48 h
[1] = test system: BT-549
[2] = test system: CAKI-1
[3] = test system: CCRF-CEM
[4] = test system: COLO 205
[5] = test system: EKVX
[6] = test system: HCC 2998
[7] = test system: HCT-116
[8] = test system: HT-29
[9] = test system: K562
[10] = test system: M14
[11] = test system: MCF7
[12] = test system: Malme-3M
[13] = test system: OVCAR-4
[14] = test system: SK-MEL-28
[15] = test system: SN12C
[16] = test system: NCI-H522
[17] = test system: SK-OV-3
[18] = test system: SNB-75
[19] = test system: SW-620
[20] = test system: A498

Measured: GI50

NNC(=O)c1ccc(-n2nnc(C(=O)NN)c2C(=O)NN)cc1
inactive: [1] > 100 µM | [2] > 100 µM | [3] > 100 µM | [4] > 100 µM | [5] > 100 µM | [6] > 100 µM | [7] > 100 µM | [8] > 100 µM | [9] > 100 µM | [10] > 100 µM | [11] > 100 µM | [12] > 100 µM | [13] > 100 µM | [14] > 100 µM | [15] > 100 µM

CC(=O)CSc1c(-c2ccccc2)c(=O)n(-c2ccccc2)c(=S)n1-c1ccccc1
inactive: [1] > 100 µM | [2] > 100 µM | [3] > 100 µM | [4] > 100 µM | [5] > 100 µM | [7] > 100 µM | [8] > 100 µM | [9] > 100 µM | [10] > 100 µM | [11] > 100 µM | [12] > 100 µM | [16] > 100 µM | [13] > 100 µM | [14] > 100 µM | [17] > 100 µM | [15] > 100 µM | [18] 61.2 µM | [19] > 100 µM

O=C(NC(=S)NC(=O)c1cc(O)c(O)c(O)c1)c1cc(O)c(O)c(O)c1
inactive: [20] > 100 µM | [2] 21.1 µM | [3] 4.41 µM | [4] 22.6 µM | [6] 31 µM | [7] 20.4 µM | [8] 25.9 µM | [9] 8.34 µM | [10] 32.1 µM | [11] 38.7 µM | [16] 22.7 µM | [13] 20.4 µM | [14] 27.8 µM | [17] 23.2 µM | [15] 24.7 µM | [19] 27.7 µM

CC[C@]1(Cc2ccc(OC)c(OC)c2)C=[N+]([O-])O[C@H](OC2CCCC2(c2ccccc2)c2ccccc2)[C@@H]1OC(=O)c1ccccc1 (stereo partly drawn)
inactive: [1] > 27.1 µM | [2] > 100 µM | [3] 3.27 µM | [4] 8.79 µM | [5] 3.86 µM | [6] 9.71 µM | [7] 4.51 µM | [8] 3.57 µM | [9] 3.94 µM | [10] 8.13 µM | [11] 3.38 µM | [16] 3.87 µM | [13] 7.38 µM | [14] 20.8 µM | [17] > 47.9 µM | [15] > 21.2 µM | [18] 6.62 µM | [19] 8.87 µM

CC(C)(C)C1=C(Br)C(C(C)(C)C)OP1(=O)O (stereo not drawn)
inactive: [20] > 100 µM | [2] > 100 µM | [4] > 100 µM | [5] > 100 µM | [6] > 100 µM | [7] > 100 µM | [8] > 100 µM | [9] > 100 µM | [10] > 100 µM | [11] > 100 µM | [12] > 100 µM | [16] > 100 µM | [13] > 100 µM | [14] > 100 µM | [17] > 100 µM | [15] > 100 µM | [18] > 100 µM

CC(C)(c1ccccc1)c1ccc(OC#N)cc1
inactive: [20] > 100 µM | [2] > 95.5 µM | [3] 40.6 µM | [4] > 41.3 µM | [5] > 100 µM | [6] > 77.6 µM | [7] 34.4 µM | [8] > 70.3 µM | [9] 37.8 µM | [10] > 100 µM | [12] > 100 µM | [16] 15.2 µM | [13] 71.4 µM | [14] > 70.5 µM | [17] 98.6 µM | [15] 60.5 µM | [18] 15.2 µM | [19] 99.3 µM

CC(C)Cc1cc(CCC(=O)Nc2ccccc2[N+](=O)[O-])nc(NC#N)n1
inactive: [20] > 100 µM | [2] > 100 µM | [3] > 100 µM | [4] > 100 µM | [5] > 100 µM | [6] > 100 µM | [7] > 100 µM | [8] > 100 µM | [9] > 100 µM | [10] > 100 µM | [12] > 100 µM | [16] > 100 µM | [13] > 100 µM | [14] > 100 µM | [17] > 100 µM | [15] > 100 µM | [18] > 100 µM | [19] > 100 µM

CN1C(=O)C(=O)c2cc3c(c4c2c1cc1ccccc14)OCO3 [CEPHARADIONE A]
inactive: [20] > 100 µM | [2] 31.3 µM | [3] 8.95 µM | [4] 28.7 µM | [5] 69.7 µM | [6] 49.1 µM | [7] 15.6 µM | [8] 34.4 µM | [9] 27.2 µM | [10] 26.7 µM | [12] 38.8 µM | [16] 22.6 µM | [13] 58.6 µM | [14] 40.5 µM | [17] 50.4 µM | [15] 37.7 µM | [18] 39.2 µM | [19] 35.4 µM

Reference: ChEMBL document CHEMBL1201862, “PubChem BioAssay data set” (2004)
